Source: US20210253550A1, “THERAPEUTIC COMPOUNDS AND COMPOSITIONS” (eXIthera Pharmaceuticals, Inc., priority 2018, published 2021)

Assays:
[1] = tested on: blood coagulation components; format: in vivo
Experimental: The following parameters and endpoints were evaluated in this study: mortality, body weight, physical, clinical pathology parameters (hematology and coagulation), coagulation time, and bioanalytical parameters.
The vehicle and test article were administered via intravenous (IV) infusion once on Day 1 for 135 minutes (initiated 30 minutes prior to starting the Cardiopulmonary Bypass (CPB) and continuing for 105 minutes of CPB). Group 2 animals received a […] IV bolus dose immediately prior to the start of IV infusion. Group 3, 4, and 5 animals received a 10 mg/kg IV bolus dose prior to the start of the IV infusion; with the CPB machine primed with test article at 10 μg/mL.
Infusion of the Compound 1 was started 30 minutes prior to the animal being placed on the CPB pump. The CPB pump was primed with 0.9% saline.
Venous and arterial sheaths were flushed with the Compound 1 at a concentration of 10 μg/mL. An IV bolus dose of the test article was administered immediately prior to the start of the infusion. Infusion of Compound 1 was started 30 minutes prior to the animal being placed on the CPB pump. The CPB […] was primed with 10 μg/mL of the Compound 1 prior to initiation of the CPB pump.
An IV bolus dose of the Compound 1 was administered immediately prior to the start of the infusion. Infusion of Compound 1 was started 30 minutes prior to the animal being placed on the CPB pump.

[2] = Solubility of Compound 1.HCl measured gravimetrically in solvents/solvent mixtures; format: physicochemical; details: thermodynamic from solid, slurried 48 h, gravimetric
Experimental: Solubility of Compound 1.HCl was measured gravimetrically in 12 different solvents and solvent mixtures at 15 and 45° C. About 90 mg of the compound was dispensed in 1 mL of the solvent/solvent mixture and slurried for 48 h. The vials were centrifuged. The supernatant was collected and left for slow evaporation under vacuum at 45° C. The solids obtained after evaporation were used to determine the solubility of Compound 1.HCl and analyzed by XRPD for any new form. Table 1 represents the solubility of Compound 1.HCl in different solvents.

[3] = Dynamic Vapor Sorption (DVS) with XRPD before and after; format: physicochemical
Experimental: Samples were analyzed using an Aquadyne DVS-2 gravimetric water sorption analyzer. The relative humidity was adjusted between 2-95% and the weight of the sample was continuously monitored and recorded with respect to the relative humidity and time.
The same material was subjected under the Dynamic Vapor Sorption (DVS, FIGS. 3 and 4).
The purity of the sample was also verified by ^1H-NMR. […] The amorphous salt was also studied by DVS. During Desorption 1, (from 50 to 0% RH), a weight loss of around 3% was observed whilst, during Sorption 1 (from 0 to 95% RH), a weight gain of 10%. Desorption 2 indicates a weight loss of 3% was observed and during Sorption 2 (from 0 to 95% RH) the weight loss was continued to additional 1%. In the final stage, Desorption 3 (from 95 to 50% RH), around 1% weight loss was observed (see FIG. 17). The amorphous Compound 1.HCl was analyzed by XRPD and optical microscopy post-DVS experiment.

[4] = Relative stability of the forms: competitive slurries of Pattern A and amorphous form; format: physicochemical; details: Pattern A + amorphous form in TBME, IPA and THF:H2O (95:5), RT and 45° C.
[5] = Heating of amorphous salt at 140° C., XRPD and DSC; format: physicochemical; details: amorphous salt heated to 140° C. for 30 min (Sample D9)
Experimental: FIG. 18 illustrates the post-DVS XRPD comparison with the amorphous and Pattern A (original salt). The amorphous salt was heated to 140° C. for 30 min and characterized by XRPD and DSC (Sample ID: D9). […] The DSC thermogram in FIG. 21 also confirms the conversion of amorphous to crystalline (Pattern A) after heating the amorphous sample at 140° C.

[6] = amorphous salt (Sample C1), from 0 to 95% RH

## C[C@@H](NC(=O)N1C(=O)[C@H](Cc2ccnc(N)c2)[C@H]1C(=O)O)C1CCCCC1 [Compound 1, (2S,3R)-3-[(2-aminopyridin-4-yl)methyl]-1-{[(1R)-1-cyclohexylethyl]carbamoyl}-4-oxoazetidine-2-carboxylic acid]
[1]; dog, in vivo
  morbidity or mortality: not associated with any increases in morbidity or mortality
  survival: All animals survived to study termination
[1]; hound CPB model, 105-minute CPB run
  prevention of activation of blood coagulation in components of cardiopulmonary bypass: successful in preventing the activation of blood coagulation in components of cardiopulmonary bypass
[1]; hound CPB model, IV infusion at multiple doses, entire pump run
  pressure gradient across the membrane oxygenator: stayed consistent through the entire run
[1]; hound CPB model, coagulation parameters
  selectivity of anticoagulant effects: selective to inhibition of activated partial thromboplastin time (aPTT)
[1]; hound, all animals, IV infusion 3 or 10 mg/kg/hr
  aPTT during Compound 1 infusion and prior to CPB: moderately to markedly prolonged
[1]; hound, all groups
  aPTT following cessation of infusion and CPB, at the conclusion of the study: remained moderately prolonged

## C[C@@H](NC(=O)N1C(=O)[C@H](Cc2ccnc(N)c2)[C@H]1C(=O)O)C1CCCCC1.Cl [Compound 1.HCl]
[2]; aqueous with cosolvent or surfactant or cyclodextrin, MeOH:H2O (1:1), 15° C.
  solubility at 48 h: > 100 mg/mL
[2]; aqueous with cosolvent or surfactant or cyclodextrin, MeOH:H2O (1:1), 45° C.
  solubility at 48 h: > 100 mg/mL
[2]; organic solvent or mixture, Acetone, 15° C.
  solubility at 48 h: 2.2 mg/mL
[2]; organic solvent or mixture, Acetone, 45° C.
  solubility at 48 h: 4.8 mg/mL
[2]; organic solvent or mixture, EtOAc, 15° C.
  solubility at 48 h: 0.2 mg/mL
[2]; organic solvent or mixture, EtOAc, 45° C.
  solubility at 48 h: 2.1 mg/mL
[2]; organic solvent or mixture, EtOH:H2O (95:5), 15° C.
  solubility at 48 h: > 100 mg/mL
[2]; organic solvent or mixture, EtOH:H2O (95:5), 45° C.
  solubility at 48 h: > 100 mg/mL
[2]; organic solvent or mixture, Heptane, 15° C.
  solubility at 48 h: < 1 mg/mL
[2]; organic solvent or mixture, Heptane, 45° C.
  solubility at 48 h: 2.1 mg/mL
[2]; organic solvent or mixture, IPA, 15° C.
  solubility at 48 h: 17 mg/mL
[2]; organic solvent or mixture, IPA, 45° C.
  solubility at 48 h: 43 mg/mL
[2]; organic solvent or mixture, IPA:H2O (9:1), 15° C.
  solubility at 48 h: > 100 mg/mL
[2]; organic solvent or mixture, IPA:H2O (9:1), 45° C.
  solubility at 48 h: > 100 mg/mL
[2]; organic solvent or mixture, MeCN, 15° C.
  solubility at 48 h: 0.7 mg/mL
[2]; organic solvent or mixture, MeCN, 45° C.
  solubility at 48 h: 0.7 mg/mL
[2]; organic solvent or mixture, MeOH, 15° C.
  solubility at 48 h: > 100 mg/mL
[2]; organic solvent or mixture, MeOH, 45° C.
  solubility at 48 h: > 100 mg/mL
[2]; organic solvent or mixture, TBME, 15° C.
  solubility at 48 h: 0.4 mg/mL
[2]; organic solvent or mixture, TBME, 45° C.
  solubility at 48 h: 4.1 mg/mL
[2]; organic solvent or mixture, THF, 15° C.
  solubility at 48 h: 1.2 mg/mL
[2]; organic solvent or mixture, THF, 45° C.
  solubility at 48 h: 6.7 mg/mL
[2]; Water, 15° C.
  solubility at 48 h: > 100 mg/mL
[2]; Water, 45° C.
  solubility at 48 h: > 100 mg/mL
[3]; crystalline Pattern A, after DVS
  crystalline pattern by XRPD after DVS: did not change
[3]; crystalline Pattern A, relative humidity levels between 0-95%
  moisture uptake (DVS): about 4%
[4]
  solid form by XRPD of competitive slurries after 24 h: did not exhibit any change in the crystalline form (Pattern A)
  solid form by XRPD of competitive slurries at t=5 min: transformed to Pattern A

## C[C@@H](NC(=O)N1C(=O)[C@H](Cc2ccnc(N)c2)[C@H]1C(=O)O)C1CCCCC1.Cl [amorphous Compound 1.HCl]
[5]
  solid form by XRPD after heating: transformation to Pattern A (crystalline salt)
[3]; amorphous salt (Sample C1)
  weight loss, DVS Desorption 2: 3%
[3]; amorphous salt (Sample C1), post-DVS experiment
  solid form by XRPD post-DVS: reverts back to crystalline salt (Pattern A)
[3]; [6]
  additional weight loss, DVS Sorption 2: 1%
  weight gain, DVS Sorption 1: 10%
[3]; amorphous salt (Sample C1), from 50 to 0% RH
  weight loss, DVS Desorption 1: around 3%
[3]; amorphous salt (Sample C1), from 95 to 50% RH
  weight loss, DVS Desorption 3: around 1%
